This is an account of results in the supplement of paper PMC6045584.

Compound in assay [1]: COc1ccc(-c2cc3c(C)nc(N)nc3n([C@H]3CC[C@H](OCCO)CC3)c2=O)cn1
The assay can be described thus: surviving fraction relative to DMSO-only wells; higher = less growth inhibition. Conditions: exposure time: 5 days. In a few lines: (§1)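 Viability values are CellTiter-Glo luminescence readings, given as surviving fraction against the median of DMSO-only wells. The readings were taken after 10 minutes at room temperature, following five days of continuous exposure to inhibitors at 0.5, 1, 5, 10, 50, 100, 500 and 1000 nM that began 24 hours after log-phase tumour cell lines were seeded at 250–500 cells per well in 384-well plates. Every line was screened three times and kept only if replicate Pearson r >0.7 and median Z' >0.3.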

Compound in the next assay: O=C(CCCCCCC(=O)Nc1ccccc1)NO [VORINOSTAT]
The description is as above. Conditions: exposure time: 5 days. The procedure, abridged:
as §1

± gives the standard deviation of the averaged measurements.

Regarding MDAMB453 BREAST, the surviving fraction turned out to be 1.08 ± 0.075 in assay [1] (0.5 nM); 1.03 ± 0.078 in assay [1] (1 nM); 1.05 ± 0.054 in assay [1] (5 nM); 1.06 ± 0.069 in assay [1] (10 nM); 0.603 ± 0.051 in assay [1] (50 nM); 0.312 ± 0.047 in assay [1] (100 nM). Besides, the surviving fraction in assay [1] (500 nM) amounted to 0.0933 ± 0.0086; in assay [1] (1000 nM) it was 0.0587 ± 0.016; with VORINOSTAT (0.5 nM), 0.998 ± 0.032; in the assay with VORINOSTAT (1 nM), 1.01 ± 0.079; with VORINOSTAT (5 nM), 1.03 ± 0.062; with VORINOSTAT (10 nM) it was 1.05 ± 0.065. In addition, the surviving fraction with VORINOSTAT (50 nM) is 1.06 ± 0.038; in the assay with VORINOSTAT (100 nM) it was 1.06 ± 0.022; with VORINOSTAT (500 nM) it was 0.785 ± 0.036; in the assay with VORINOSTAT (1000 nM), 0.244 ± 0.0089.
As to HCC1395 BREAST, the surviving fraction in assay [1] (0.5 nM) stood at 0.864 ± 0.096; in assay [1] (1 nM), 0.956 ± 0.025; in assay [1] (5 nM), 0.998 ± 0.076; in assay [1] (10 nM) it was 1.03 ± 0.029; in assay [1] (50 nM), 0.883 ± 0.21; in assay [1] (100 nM), 0.846 ± 0.13. The surviving fraction worked out at 0.766 ± 0.1 in assay [1] (500 nM); 0.581 ± 0.15 in assay [1] (1000 nM); 1.1 ± 0.23 with VORINOSTAT (0.5 nM); 1.05 ± 0.16 with VORINOSTAT (1 nM); 1.31 ± 0.066 with VORINOSTAT (5 nM); 1.11 ± 0.11 in the assay with VORINOSTAT (10 nM). Further, the surviving fraction with VORINOSTAT (50 nM) stood at 1.25 ± 0.11; in the assay with VORINOSTAT (100 nM), 1.21 ± 0.042; in the assay with VORINOSTAT (500 nM) it was 1.03 ± 0.11; in the assay with VORINOSTAT (1000 nM), 0.94 ± 0.1.
On to HOSMNG BONE, for which the surviving fraction in assay [1] (0.5 nM) came out at 1.03 ± 0.058; in assay [1] (1 nM), 1.01 ± 0.087; in assay [1] (5 nM) it was 1.04 ± 0.037; in assay [1] (10 nM), 0.947 ± 0.034; in assay [1] (50 nM), 0.944 ± 0.082; in assay [1] (100 nM), 0.81 ± 0.033. In addition, the surviving fraction worked out at 0.348 ± 0.0079 in assay [1] (500 nM); 0.186 ± 0.0096 in assay [1] (1000 nM); 0.994 ± 0.12 with VORINOSTAT (0.5 nM); 0.94 ± 0.091 in the assay with VORINOSTAT (1 nM); 0.996 ± 0.17 in the assay with VORINOSTAT (5 nM); 1.06 ± 0.064 with VORINOSTAT (10 nM). The surviving fraction in the assay with VORINOSTAT (50 nM) is 0.999 ± 0.048; in the assay with VORINOSTAT (100 nM), 1.09 ± 0.063; with VORINOSTAT (500 nM), 1.06 ± 0.023; with VORINOSTAT (1000 nM) it was 1.09 ± 0.02.
As to SG32 HEADNECK, the surviving fraction in assay [1] (0.5 nM) worked out at 1.08 ± 0.076; in assay [1] (1 nM), 1.09 ± 0.38; in assay [1] (5 nM), 1.02 ± 0.11; in assay [1] (10 nM), 1.34 ± 0.31; in assay [1] (50 nM), 1.04 ± 0.095; in assay [1] (100 nM), 0.982 ± 0.14. In addition, the surviving fraction came to 0.432 ± 0.086 in assay [1] (500 nM); 0.263 ± 0.044 in assay [1] (1000 nM); 0.938 ± 0.1 with VORINOSTAT (0.5 nM); 1.18 ± 0.35 in the assay with VORINOSTAT (1 nM); 1.18 ± 0.2 with VORINOSTAT (5 nM); 0.933 ± 0.053 with VORINOSTAT (10 nM). For the same test system, the surviving fraction with VORINOSTAT (50 nM) amounted to 1.03 ± 0.25; with VORINOSTAT (100 nM), 0.995 ± 0.21; with VORINOSTAT (500 nM) it was 0.697 ± 0.16; with VORINOSTAT (1000 nM) it was 0.344 ± 0.068.
Turning to MFM223 BREAST, the surviving fraction in assay [1] (0.5 nM) came to 1.09 ± 0.086; in assay [1] (1 nM) it was 1.1 ± 0.063; in assay [1] (5 nM) it was 1.04 ± 0.061; in assay [1] (10 nM) it was 0.993 ± 0.079; in assay [1] (50 nM), 0.674 ± 0.071; in assay [1] (100 nM), 0.432 ± 0.016. Besides, the surviving fraction in assay [1] (500 nM) amounted to 0.127 ± 0.012; in assay [1] (1000 nM) it was 0.0725 ± 0.0048; with VORINOSTAT (0.5 nM) it was 1.05 ± 0.16; with VORINOSTAT (1 nM), 1.09 ± 0.047; in the assay with VORINOSTAT (5 nM), 1.13 ± 0.034; with VORINOSTAT (10 nM) it was 1.04 ± 0.043. The surviving fraction was determined as 1.18 ± 0.028 in the assay with VORINOSTAT (50 nM), 1.08 ± 0.03 with VORINOSTAT (100 nM), 0.738 ± 0.086 with VORINOSTAT (500 nM) and 0.361 ± 0.029 with VORINOSTAT (1000 nM).
On to MDAMB134 BREAST, for which the surviving fraction amounted to 0.973 ± 0.12 in assay [1] (0.5 nM); 0.869 ± 0.11 in assay [1] (1 nM); 0.864 ± 0.061 in assay [1] (5 nM); 0.839 ± 0.19 in assay [1] (10 nM); 0.639 ± 0.11 in assay [1] (50 nM); 0.682 ± 0.064 in assay [1] (100 nM). Also, the surviving fraction in assay [1] (500 nM) came out at 0.361 ± 0.0042; in assay [1] (1000 nM) it was 0.293 ± 0.05; in the assay with VORINOSTAT (0.5 nM), 0.938 ± 0.037; in the assay with VORINOSTAT (1 nM) it was 0.937 ± 0.17; with VORINOSTAT (5 nM), 0.987 ± 0.0099; with VORINOSTAT (10 nM) it was 0.857 ± 0.011. Besides, the surviving fraction with VORINOSTAT (50 nM) is 0.935 ± 0.026; with VORINOSTAT (100 nM), 0.949 ± 0.16; with VORINOSTAT (500 nM) it was 0.688 ± 0.04; with VORINOSTAT (1000 nM) it was 0.781 ± 0.025.
Turning to H23 LUNG, the surviving fraction in assay [1] (0.5 nM) turned out to be 0.989 ± 0.016; in assay [1] (1 nM) it was 0.98 ± 0.078; in assay [1] (5 nM) it was 0.872 ± 0.063; in assay [1] (10 nM) it was 0.731 ± 0.042; in assay [1] (50 nM), 0.422 ± 0.018; in assay [1] (100 nM), 0.265 ± 0.028. The surviving fraction in assay [1] (500 nM) came out at 0.127 ± 0.0091; in assay [1] (1000 nM), 0.0933 ± 0.005; in the assay with VORINOSTAT (0.5 nM), 1.04 ± 0.048; with VORINOSTAT (1 nM), 0.983 ± 0.034; with VORINOSTAT (5 nM), 1.04 ± 0.036; with VORINOSTAT (10 nM) it was 1 ± 0.0087. Moreover, the surviving fraction with VORINOSTAT (50 nM) came out at 1.18 ± 0.034; in the assay with VORINOSTAT (100 nM), 1.27 ± 0.037; with VORINOSTAT (500 nM), 1.44 ± 0.1; with VORINOSTAT (1000 nM), 1.29 ± 0.062.
